Results on eight compounds are retold here after PubChem BioAssay (NCI).

What is called TGI is the concentration at which net growth stops. Lower therefore signals more potent growth arrest.

Some test systems named below: OVCAR-8 ovarian; HCT-15 colon; SK-MEL-28 melanoma; SW-620 colon; TK-10 renal; SF-295 CNS; COLO 205 colon; OVCAR-5 ovarian; PC-3 prostate; UACC-257 melanoma.
Common to all, as to test: DTP human tumour cell line panel, 48 h

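Five concentrations, 48 hours, 96-well plates. TGI: total growth inhibition.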

Take `O=C1c2ccccc2-c2ccc(O)cc21`: the total growth inhibition concentration (TGI) in the assay on OVCAR-8 ovarian is 42.2 µM; in the assay with HCT-15 colon it was 49.6 µM; with SK-MEL-28 melanoma, 45.8 µM; in the assay on SW-620 colon it was above 100 µM; with TK-10 renal, 49.5 µM; with SF-295 CNS, 96.2 µM. Also, the TGI in the assay with COLO 205 colon came out at 58.4 µM; in the assay on OVCAR-5 ovarian, 68.5 µM; in the assay on PC-3 prostate, 42.9 µM; in the assay with UACC-257 melanoma, 49.1 µM.

Take `CO[C@@]12C[C@@H](CNC(=O)c3cc(Br)c[nH]3)O[C@@H]1NC(=O)N2`: the TGI with OVCAR-8 ovarian, in the assay with HCT-15 colon, in the assay on SK-MEL-28 melanoma, with SW-620 colon, with TK-10 renal and in the assay on SF-295 CNS was above 100 µM each time. In addition, the TGI in the assay with COLO 205 colon, in the assay on OVCAR-5 ovarian, in the assay with PC-3 prostate and with UACC-257 melanoma was above 100 µM each time.

Turning to `COc1ccc(/C=c2/[nH]c(=O)/c(=C\c3ccc(OCc4ccccc4)cn3)[nH]c2=O)cc1`, the total growth inhibition concentration (TGI) in the assay with OVCAR-8 ovarian, with HCT-15 colon, in the assay on SK-MEL-28 melanoma, with SW-620 colon, in the assay with TK-10 renal and with SF-295 CNS was above 100 µM each time. In addition, the TGI with COLO 205 colon, in the assay on OVCAR-5 ovarian, in the assay with PC-3 prostate and in the assay with UACC-257 melanoma was above 100 µM in each case.

As to `COc1nc(C#CCCCC#N)nc(OC)n1`, the TGI in the assay with OVCAR-8 ovarian was found to be 61.4 µM; in the assay with HCT-15 colon, 18.3 µM; in the assay on SK-MEL-28 melanoma, 34.8 µM; in the assay on SW-620 colon it was 32.5 µM; with TK-10 renal it was 37.7 µM; in the assay on SF-295 CNS, 84.6 µM. The TGI is above 100 µM in the assay with COLO 205 colon, 27.8 µM in the assay on OVCAR-5 ovarian, 30.9 µM in the assay on PC-3 prostate and 45.2 µM with UACC-257 melanoma.

Consider `CCn1cc(C(=O)O)c(=O)c2cc(F)c(N3CCN(Cn4c(O)c(N=NC(=O)c5ccncc5)c5cc(Cl)ccc54)CC3)cc21`, for which the TGI in the assay on OVCAR-8 ovarian is above 100 µM; with HCT-15 colon it was above 100 µM; with SK-MEL-28 melanoma, above 100 µM; in the assay on SW-620 colon, above 100 µM; in the assay with TK-10 renal, 71.3 µM; in the assay with SF-295 CNS it was above 100 µM. In addition, the TGI with COLO 205 colon, in the assay on OVCAR-5 ovarian, in the assay on PC-3 prostate and in the assay on UACC-257 melanoma was above 100 µM in each case.

In the case of `CC(=O)C1(c2ccccc2)CCCN(C)CC1` (stereo not given), the TGI in the assay with OVCAR-8 ovarian, in the assay with HCT-15 colon, in the assay with SK-MEL-28 melanoma, in the assay with SW-620 colon, with TK-10 renal and in the assay with SF-295 CNS was above 100 µM throughout. The TGI with COLO 205 colon, in the assay on OVCAR-5 ovarian, with PC-3 prostate and in the assay with UACC-257 melanoma was above 100 µM each time.

As for `COc1ccc(OC)c2sc(N3C(=O)/C(=C/c4ccccc4S)N=C3c3ccccc3)nc12`, the TGI with OVCAR-8 ovarian, in the assay with HCT-15 colon, in the assay with SK-MEL-28 melanoma, in the assay on SW-620 colon, in the assay on TK-10 renal and with SF-295 CNS was above 100 µM in each case. The TGI is above 100 µM with COLO 205 colon, above 100 µM in the assay on OVCAR-5 ovarian, 56.5 µM with PC-3 prostate and above 100 µM with UACC-257 melanoma.

Take `O=C(O)C(Cc1ccccc1)N1C(=O)c2ccccc2C1=O` (stereo not given): the TGI in the assay on OVCAR-8 ovarian is above 100 µM; in the assay with HCT-15 colon, above 100 µM; in the assay with SK-MEL-28 melanoma it was 30.4 µM; in the assay on SW-620 colon, 84.9 µM; with TK-10 renal it was above 100 µM; in the assay with SF-295 CNS, above 100 µM. Also, the TGI in the assay on COLO 205 colon, with OVCAR-5 ovarian, in the assay on PC-3 prostate and in the assay with UACC-257 melanoma was above 100 µM in each case.
